# Tested on: high-affinity IgE receptor (FcεRI)
# Assay: FcεRI expression amount on the cell surface of KU812 cells by flow cytometry
# Type: cell-based, human
# Conditions: 24 hours
# Experimental: By using antihuman FcRI antibody (CRA1), the FcεRI expression amount on the surface of human basophil-like cell line KU812 cells was analyzed by flow cytometry. Cells having been incubated by adding DMSO alone were compared with cells having been incubated by adding chrysin. The ratio of overexpression of FcεRI is indicated in percentage. As a basal medium for incubating cells, use was made of RPMI 1640 (Nissui, Japan), to which 100 U/mL of penicillin (Meiji Pharmaceutical Company, Tokyo, Japan), […] of streptomycin (Meiji Pharmaceutical Company, Tokyo, Japan), 12.5 mM of MaHCO3 (Wako Pure Chemical Industries, Osaka, Japan) and 10 mM of HEPES Wako Pure Chemical Industries) had been added. Fetal bovine serum (FBS) purchased form Bio Source International was added to the basal medium to give a concentration of 5 to 10%. Human basophil-like cell line KU812 employed in this experiment was assigned by Japan Collection of Research Bioresources (JCRB) and subcultured and maintained in RPMI 1640 medium comprising 5 to 10% of FBS at 37° C. in 5% CO2 gas under humidification. KU812 cells were incubated in RPMI 1640 medium, to which chrysin dissolved in DMSO had been added, for 0 to 24 hours. A system wherein the cells were incubated in the medium comprising DMSO alone was used as a control. After incubating, the cells were collected and incubated in 5% FBS-PBS, to which 10 μg/mL of antihuman FcεRI α chain mouse monoclonal antibody CRA-1 (Kyokuto Pharmaceutical) had been added, at 4° C. for 40 to 60 min. As a negative control, 10 μg/mL of mouse control IgG2b antibody (DAKO) was used. Then, the cells were washed with ice-cooled PBS once and incubated in 5% FBS-PBS, to which 10 μg/mL of antimouse IgG2b FITC-labeled antibody (Protos Immunoresearch) had been added, at 4° C. for 40 to 60 min. After incubating, the cells were washed with PBS and then resuspended in PBS. The cell suspension thus obtained was analyzed by flow cytometry. In the flow cytometry analysis, FACS Calibur (Becton Sickinson, Sunnyvale, Calif.) was employed. The secondary antibody reaction and the subsequent procedures were conducted in the dark and the cells were preserved on ice while conducting the analysis. KU812 cells (5×10^5 cells/mL) was incubated in 5% bovine fetal serum comprising RPMI 1640 medium, to which chrysin (0, 1, 5 and 10 μM) and apigenin (purchased from Aldrich Chem. Co., St. Louis, Mo.; 0, 1, 5 and 10 μM) had been added, for 24 hours. After incubating, the FcεRI expression level on the cell surface was measured by flow cytometry (experimental procedure: see [0047]).
structure (smiles),measurement,setting,value
O=c1cc(-c2ccc(O)cc2)oc2cc(O)cc(O)c12 [Apigenin],FcεRI expression suppressive rate (%),single agent 1 μM,5.0%
same,FcεRI expression suppressive rate (%),single agent 5 μM,17.1%
same,FcεRI expression suppressive rate (%),single agent 10 μM,36.1%

# From US20080262080A1, “Allergy Suppressive Agent” (KYUSHU UNIVERSITY, NATIONAL UNIVERSITY CORPORATION, priority 2004, published 2008)
